System: GM1 production in Jurkat cells
Test: cells
Format: cell-based
Details: Homo sapiens, Jurkat, 72 h

Structure (SMILES)	IC50 [nM]
O=C(NC1COc2cc(-c3cccc(OC(F)(F)F)c3)ccc21)O[C@@H]1CN2CCC1CC2 (stereo partly drawn) [Example 405, (S)-quinuclidin-3-yl (6-(3-(trifluoromethoxy)phenyl)-2,3-dihydrobenzofuran-3-yl)carbamate]	44.7
CC1(C)Cc2cc(-c3cc(F)cc(F)c3)ccc2C1NC(=O)O[C@@H]1CN2CCC1CC2 (stereo partly drawn) [Example 90, (S)-quinuclidin-3-yl (5-(3,5-difluorophenyl)-2,2-dimethyl-2,3-dihydro-1H-inden-1-yl)carbamate]	37.9
CC1(C)Cc2ccc(-c3ccc(F)c(F)c3)cc2C1NC(=O)O[C@@H]1CN2CCC1CC2 (stereo partly drawn) [Example 62, (S)-quinuclidin-3-yl (6-(3,4-difluorophenyl)-2,2-dimethyl-2,3-dihydro-1H-inden-1-yl)carbamate]	103
Cc1ccc(C)c(-c2ccc3c(c2)CC(C)(C)C3NC(=O)O[C@@H]2CN3CCC2CC3)c1 (stereo partly drawn) [Example 260, (S)-quinuclidin-3-yl (5-(2,5-dimethylphenyl)-2,2-dimethyl-2,3-dihydro-1H-inden-1-yl)carbamate]	14.4
COc1ccc(-c2ccc3c(c2)CC(C)(C)C3NC(=O)O[C@@H]2CN3CCC2CC3)c(F)c1 (stereo partly drawn) [Example 128, (S)-quinuclidin-3-yl (5-(2-fluoro-4-methoxyphenyl)-2,2-dimethyl-2,3-dihydro-1H-inden-1-yl)carbamate]	18.4
CC1(C)Cc2cc(-c3cc(Cl)ncc3Cl)ccc2C1NC(=O)O[C@@H]1CN2CCC1CC2 (stereo partly drawn) [Example 119, (S)-quinuclidin-3-yl (5-(2,5-dichloropyridin-4-yl)-2,2-dimethyl-2,3-dihydro-1H-inden-1-yl)carbamate]	38.3
CC1(C)Cc2cc(-c3cccc(C(F)F)c3)ccc2C1NC(=O)O[C@@H]1CN2CCC1CC2 (stereo partly drawn) [Example 155, (S)-quinuclidin-3-yl (5-(3-(difluoromethyl)phenyl)-2,2-dimethyl-2,3-dihydro-1H-inden-1-yl)carbamate]	8.4
COc1cc2c(cc1-c1cc(C)c(OC)c(C)c1)CC(C)(C)C2NC(=O)O[C@@H]1CN2CCC1CC2 (stereo partly drawn) [Example 329, (S)-quinuclidin-3-yl (6-methoxy-5-(4-methoxy-3,5-dimethylphenyl)-2,2-dimethyl-2,3-dihydro-1H-inden-1-yl)carbamate]	65.8
COc1ccc2cc(-c3ccc4c(c3)CC(C)(C)C4NC(=O)O[C@@H]3CN4CCC3CC4)ccc2c1 (stereo partly drawn) [Example 189, (S)-quinuclidin-3-yl (5-(6-methoxynaphthalen-2-yl)-2,2-dimethyl-2,3-dihydro-1H-inden-1-yl)carbamate]	23
Cc1ccc(F)cc1-c1ccc2c(c1)CC(C)(C)C2NC(=O)O[C@@H]1CN2CCC1CC2 (stereo partly drawn) [Example 220, (S)-quinuclidin-3-yl (5-(5-fluoro-2-methylphenyl)-2,2-dimethyl-2,3-dihydro-1H-inden-1-yl)carbamate]	17.6
CCOc1ccc(Cl)c(-c2ccc3c(c2)CC(C)(C)C3NC(=O)O[C@@H]2CN3CCC2CC3)c1 (stereo partly drawn) [Example 241, (S)-quinuclidin-3-yl (5-(2-chloro-5-ethoxyphenyl)-2,2-dimethyl-2,3-dihydro-1H-inden-1-yl)carbamate]	51.3
COCOc1ccc(-c2ccc3c(c2)CC(C)(C)C3NC(=O)O[C@@H]2CN3CCC2CC3)cc1 (stereo partly drawn) [Example 100, (S)-quinuclidin-3-yl (5-(4-(methoxymethoxy)phenyl)-2,2-dimethyl-2,3-dihydro-1H-inden-1-yl)carbamate]	21.5
CC1(C)Cc2cc(-c3ccc(C4CC4)cc3)c(F)cc2C1NC(=O)O[C@@H]1CN2CCC1CC2 (stereo partly drawn) [Example 354, (S)-quinuclidin-3-yl (5-(4-cyclopropylphenyl)-6-fluoro-2,2-dimethyl-2,3-dihydro-1H-inden-1-yl)carbamate]	5.9
CCOc1ccc(-c2ccc3c(c2)CC(CC)(CC)C3NC(=O)O[C@@H]2CN3CCC2CC3)cc1 (stereo partly drawn) [Example 284, (S)-quinuclidin-3-yl (5-(4-ethoxyphenyl)-2,2-diethyl-2,3-dihydro-1H-inden-1-yl)carbamate]	8.5
CC1(C)Oc2ccc(-c3cccc(F)c3)cc2C1NC(=O)O[C@@H]1CN2CCC1CC2 (stereo partly drawn) [Example 406, (S)-quinuclidin-3-yl (5-(3-fluorophenyl)-2,2-dimethyl-2,3-dihydrobenzofuran-3-yl)carbamate]	120
Cc1ccc(-c2ccc3c(c2)CC(C)(C)C3NC(=O)O[C@@H]2CN3CCC2CC3)cc1 (stereo partly drawn) [Example 85, (S)-quinuclidin-3-yl (2,2-dimethyl-5-(p-tolyl)-2,3-dihydro-1H-inden-1-yl)carbamate]	11.6
CCCCc1ccc(-c2ccc3c(c2)CC(C)(C)C3NC(=O)O[C@@H]2CN3CCC2CC3)cc1 (stereo partly drawn) [Example 164, (S)-quinuclidin-3-yl (5-(4-butylphenyl)-2,2-dimethyl-2,3-dihydro-1H-inden-1-yl)carbamate]	6.5
COc1ccc(C)cc1-c1ccc2c(c1)CC(C)(C)C2NC(=O)O[C@@H]1CN2CCC1CC2 (stereo partly drawn) [Example 200, (S)-quinuclidin-3-yl (5-(2-methoxy-5-methylphenyl)-2,2-dimethyl-2,3-dihydro-1H-inden-1-yl)carbamate]	3.7

Structure (SMILES)	IC50 [nM]
CCc1ccc(-c2ccc3c(c2)CC(CC)(CC)C3NC(=O)O[C@@H]2CN3CCC2CC3)cc1 (stereo partly drawn) [Example 277, (S)-quinuclidin-3-yl (2,2-diethyl-5-(4-ethylphenyl)-2,3-dihydro-1H-inden-1-yl)carbamate]	2.7
CC1(C)Cc2ccc(-c3ccccc3Cl)cc2C1NC(=O)O[C@@H]1CN2CCC1CC2 (stereo partly drawn) [Example 58, (S)-quinuclidin-3-yl (6-(2-chlorophenyl)-2,2-dimethyl-2,3-dihydro-1H-inden-1-yl)carbamate]	87.8
CC(C)c1ccc(-c2cc3c(cc2F)C(NC(=O)O[C@@H]2CN4CCC2CC4)C(C)(C)C3)cc1 (stereo partly drawn) [Example 351, (S)-quinuclidin-3-yl (6-fluoro-5-(4-isopropylphenyl)-2,2-dimethyl-2,3-dihydro-1H-inden-1-yl)carbamate]	7.4
COc1cc(-c2ccc3c(c2)CC(C)(C)C3NC(=O)O[C@@H]2CN3CCC2CC3)ccc1Cl (stereo partly drawn) [Example 125, (S)-quinuclidin-3-yl (5-(4-chloro-3-methoxyphenyl)-2,2-dimethyl-2,3-dihydro-1H-inden-1-yl)carbamate]	9.5
CCCOc1ccc(-c2cc3c(cc2OC)C(NC(=O)O[C@@H]2CN4CCC2CC4)C(C)(C)C3)cc1 (stereo partly drawn) [Example 319, (S)-quinuclidin-3-yl (6-methoxy-2,2-dimethyl-5-(4-propoxyphenyl)-2,3-dihydro-1H-inden-1-yl)carbamate]	7.7
CCC1(CC)Cc2cc(-c3cccc(F)c3)ccc2C1NC(=O)O[C@@H]1CN2CCC1CC2 (stereo partly drawn) [Example 288, (S)-quinuclidin-3-yl (2,2-diethyl-5-(3-fluorophenyl)-2,3-dihydro-1H-inden-1-yl)carbamate]	11.2
COc1ccc(-c2cc3c(cc2F)C(NC(=O)O[C@@H]2CN4CCC2CC4)C(C)(C)C3)cc1OC (stereo partly drawn) [Example 385, (S)-quinuclidin-3-yl (5-(3,4-dimethoxyphenyl)-6-fluoro-2,2-dimethyl-2,3-dihydro-1H-inden-1-yl)carbamate]	332
CCOc1cc(-c2ccc3c(c2)CC(C)(C)C3NC(=O)O[C@@H]2CN3CCC2CC3)cc(C(F)(F)F)c1 (stereo partly drawn) [Example 245, (S)-quinuclidin-3-yl (5-(3-ethoxy-5-(trifluoromethyl)phenyl)-2,2-dimethyl-2,3-dihydro-1H-inden-1-yl)carbamate]	23
COc1ccc(Cl)cc1-c1cc2c(cc1F)C(NC(=O)O[C@@H]1CN3CCC1CC3)C(C)(C)C2 (stereo partly drawn) [Example 364, (S)-quinuclidin-3-yl (5-(5-chloro-2-methoxyphenyl)-6-fluoro-2,2-dimethyl-2,3-dihydro-1H-inden-1-yl)carbamate]	17.2
CC1(C)Cc2cc(-c3ccc(OC(F)F)cc3)ccc2C1NC(=O)O[C@@H]1CN2CCC1CC2 (stereo partly drawn) [Example 86, (S)-quinuclidin-3-yl (5-(4-(difluoromethoxy)phenyl)-2,2-dimethyl-2,3-dihydro-1H-inden-1-yl)carbamate]	13.8
CCC1(CC)Cc2cc(-c3ccc(F)cc3)ccc2C1NC(=O)O[C@@H]1CN2CCC1CC2 (stereo partly drawn) [Example 276, (S)-quinuclidin-3-yl (2,2-diethyl-5-(4-fluorophenyl)-2,3-dihydro-1H-inden-1-yl)carbamate]	33.2
COCCOc1ccc(-c2ccc3c(c2)CC(C)(C)C3NC(=O)O[C@@H]2CN3CCC2CC3)cc1 (stereo partly drawn) [Example 97, (S)-quinuclidin-3-yl (5-(4-(2-methoxyethoxy)phenyl)-2,2-dimethyl-2,3-dihydro-1H-inden-1-yl)carbamate]	9.3
COc1ccc(C#N)cc1-c1ccc2c(c1)CC(C)(C)C2NC(=O)O[C@@H]1CN2CCC1CC2 (stereo partly drawn) [Example 244, (S)-quinuclidin-3-yl (5-(5-cyano-2-methoxyphenyl)-2,2-dimethyl-2,3-dihydro-1H-inden-1-yl)carbamate]	38
CCOc1cc(C(F)(F)F)ccc1-c1ccc2c(c1)CC(C)(C)C2NC(=O)O[C@@H]1CN2CCC1CC2 (stereo partly drawn) [Example 250, (S)-quinuclidin-3-yl (5-(2-ethoxy-4-(trifluoromethyl)phenyl)-2,2-dimethyl-2,3-dihydro-1H-inden-1-yl)carbamate]	33
CC1(C)Cc2cc(-c3ccc(F)cc3Cl)ccc2C1NC(=O)O[C@@H]1CN2CCC1CC2 (stereo partly drawn) [Example 225, (S)-quinuclidin-3-yl (5-(2-chloro-4-fluorophenyl)-2,2-dimethyl-2,3-dihydro-1H-inden-1-yl)carbamate]	21.3
CN(C)c1cccc(-c2ccc3c(c2)CC(C)(C)C3NC(=O)O[C@@H]2CN3CCC2CC3)c1 (stereo partly drawn) [Example 106, (S)-quinuclidin-3-yl (5-(3-(dimethylamino)phenyl)-2,2-dimethyl-2,3-dihydro-1H-inden-1-yl)carbamate]	5.8
Cc1ccc(-c2ccc3c(c2)CC(C)(C)C3NC(=O)O[C@@H]2CN3CCC2CC3)c(F)c1 (stereo partly drawn) [Example 233, (S)-quinuclidin-3-yl (5-(2-fluoro-4-methylphenyl)-2,2-dimethyl-2,3-dihydro-1H-inden-1-yl)carbamate]	23.3
COc1c(C)cc(-c2ccc3c(c2)CC(C)(C)C3NC(=O)O[C@@H]2CN3CCC2CC3)cc1C (stereo partly drawn) [Example 195, (S)-quinuclidin-3-yl (5-(4-methoxy-3,5-dimethylphenyl)-2,2-dimethyl-2,3-dihydro-1H-inden-1-yl)carbamate]	36.1

Reference: patent US12522602B2, “Derivatives having 2,3-dihydro-1H-indene or 2,3-dihydrobenzofuran moiety or pharmaceutically acceptable salt thereof and pharmaceutical compositions comprising the same” (YUHAN CORPORATION, priority 2019, dated 2026)
